What was measured:
[1] = target: T1, EF-G on 70S ribosome complexes (preT / postTerm) (Escherichia coli, UniProt P0A6M8); assay: nitrocellulose filtration of ribosome-bound EF-G•[3H]-GDPNP; format: binding; conditions: labelled compound; 2 μM EF-G; 92 nM postTerm or naked 70S ribosomes; 1 μM [3H]-GDPNP; 37°C
T1 construct: gene fusA

[2] = target: T2, EF-G (free elongation factor G) (Escherichia coli, UniProt P0A6M8); assay: nitrocellulose filtration, Scatchard plot; format: binding
T2 construct: gene fusA; purified EF-G, free in solution (no ribosome)

[3] = target: T1, EF-G on 70S ribosome complexes (preT / postTerm); assay: translocation rate by RF2-dependent fMet-Ile release, EF-G recycling; format: biochemical; conditions: read-out: I50
[4] = target: T2, EF-G (free elongation factor G); assay: nitrocellulose filtration, chase of [3H]-GDP by purified unlabelled GTP; format: binding; conditions: read-out: KGTP

T2 sequence (P0A6M8 2-704): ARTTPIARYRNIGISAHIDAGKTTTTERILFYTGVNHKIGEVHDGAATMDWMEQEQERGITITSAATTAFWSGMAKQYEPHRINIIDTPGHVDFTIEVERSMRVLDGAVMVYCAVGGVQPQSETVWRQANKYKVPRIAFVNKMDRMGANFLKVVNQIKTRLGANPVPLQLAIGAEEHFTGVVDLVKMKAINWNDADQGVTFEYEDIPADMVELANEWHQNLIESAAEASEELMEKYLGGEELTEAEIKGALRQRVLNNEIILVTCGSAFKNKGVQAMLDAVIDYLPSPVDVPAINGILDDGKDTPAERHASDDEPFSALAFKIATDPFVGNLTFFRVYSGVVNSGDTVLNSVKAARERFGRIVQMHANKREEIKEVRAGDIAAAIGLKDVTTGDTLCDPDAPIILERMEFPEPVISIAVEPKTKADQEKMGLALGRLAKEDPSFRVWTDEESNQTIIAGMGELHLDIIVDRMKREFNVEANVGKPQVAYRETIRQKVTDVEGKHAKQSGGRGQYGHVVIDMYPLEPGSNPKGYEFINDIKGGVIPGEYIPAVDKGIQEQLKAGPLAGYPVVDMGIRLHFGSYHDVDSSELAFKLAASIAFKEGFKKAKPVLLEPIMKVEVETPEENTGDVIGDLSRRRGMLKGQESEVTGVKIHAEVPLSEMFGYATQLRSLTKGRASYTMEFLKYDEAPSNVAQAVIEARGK
T1 sequence (P0A6M8 2-704, one chain of several): as the sequence (P0A6M8 2-704) above

## Nc1nc2c(ncn2[C@@H]2O[C@H](COP(=O)(O)OP(=O)(O)NP(=O)(O)O)[C@@H](O)[C@H]2O)c(=O)[nH]1 [GDPNP]
[1]
  nitrocellulose filtration of ribosome-bound EF-G•[3H]-GDPNP: EF-G, bound to either type of ribosome, had much higher affinity for GDPNP than for GDP

## Nc1nc2c(ncn2[C@@H]2O[C@H](COP(=O)(O)OP(=O)(O)O)[C@@H](O)[C@H]2O)c(=O)[nH]1 [GDP]
[2]
  Kd: ~9 µM
[3]
  IC50: 250 µM

## Nc1nc2c(ncn2[C@@H]2O[C@H](COP(=O)(O)OP(=O)(O)OP(=O)(O)O)[C@@H](O)[C@H]2O)c(=O)[nH]1 [GTP]
[4]
  Kd: > 600 µM

— publication PMC1175996, “Guanine-nucleotide exchange on ribosome-bound elongation factor G initiates the translocation of tRNAs” (Journal of Biology, 2005)
